Values joined by “and” are separate entries in the source; they are usually repeats but may differ in a detail not shown here. Equal values may be shown once.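 A five-concentration, 48-hour dose response in 96-well plates underlies each endpoint, interpolated linearly between surrounding concentrations. GI50 = concentration required for 50% inhibition of growth. TGI marks complete inhibition of growth.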
How the values were obtained:
Assay in all cases: growth of human tumour cells (NCI), 48 h
HOP-92 NSCLC = test system: HOP-92 NSCLC
MOLT-4 leukemia = test system: MOLT-4 leukemia
SNB-75 CNS = test system: SNB-75 CNS
OVCAR-4 ovarian = test system: OVCAR-4 ovarian
SK-MEL-5 melanoma = test system: SK-MEL-5 melanoma
RPMI-8226 leukemia = test system: RPMI-8226 leukemia
K-562 leukemia = test system: K-562 leukemia
IGROV1 ovarian = test system: IGROV1 ovarian
COLO 205 colon = test system: COLO 205 colon
CCRF-CEM leukemia = test system: CCRF-CEM leukemia

Row | Structure (SMILES) | GI50 (HOP-92 NSCLC) | TGI (HOP-92 NSCLC) | GI50 (MOLT-4 leukemia) [µM] | TGI (MOLT-4 leukemia) | GI50 (SNB-75 CNS) [µM] | TGI (SNB-75 CNS) | GI50 (OVCAR-4 ovarian) [µM] | TGI (OVCAR-4 ovarian) [µM] | GI50 (SK-MEL-5 melanoma) [µM] | TGI (SK-MEL-5 melanoma) [µM] | GI50 (RPMI-8226 leukemia) [µM] | TGI (RPMI-8226 leukemia) [µM] | GI50 (K-562 leukemia) [µM] | TGI (K-562 leukemia) | GI50 (IGROV1 ovarian) [µM] | TGI (IGROV1 ovarian) | GI50 (COLO 205 colon) [µM] | TGI (COLO 205 colon) | TGI (CCRF-CEM leukemia) [µM] | GI50 (CCRF-CEM leukemia) [µM]
1 | C1C[OH+]CC[OH+]CC[OH+]CC[OH+]CC[OH+]CC[OH+]1.[Cl-].[Ta+5] | > 100 µM | > 100 µM | > 100 | > 100 µM | 23.8 | > 100 µM | > 100 | > 100 | > 100 | > 100 | > 100 | > 100 | > 100 | > 100 µM | > 100 | > 100 µM | > 100 | > 100 µM |  | 
2 | CN1c2ccccc2C(C)(C)C12CC(c1ccc(Cl)c(S(=O)(=O)N3CCCC3)c1)=NO2 (configuration not stated) |  |  |  |  | > 100 | > 100 µM | > 100 | > 100 | 0.456 | > 100 |  |  |  |  | > 100 | > 100 µM | > 100 | > 100 µM |  | 
3 | C=CCNC(=S)OCCCCCCCCCC |  |  |  | 34.6 µM |  | 49.8 µM |  | 30.5 |  | 30.5 |  | 38.9 |  | 29.6 µM |  | 35.7 µM |  |  | 37.4 | 
4 | COC1(OC)c2ccccc2C2(O)c3ccccc3C(=O)C12 (configuration not stated) |  | > 100 µM |  | 80.9 µM |  | > 100 µM |  |  |  | 31.9 |  | 62.5 |  | > 100 µM |  | 67 µM |  | 27 µM | 84.5 | 
5 | CC(C)(C)C(=O)OCC(COC(=O)C(C)(C)C)[N+](=O)[O-] |  |  |  | > 100 µM |  | > 100 µM |  | > 100 |  |  |  | > 100 |  | > 100 µM |  | > 100 µM |  | > 100 µM | > 100 | 
6 | COc1ccc2c(c1)C(=O)c1c-2n(CCCCl)c(=O)c2cc(N(C)C)ccc12 | 3.42 µM | 23.4 µM | > 100 | > 100 µM | 21.3 | 69.2 µM | 62.9 | > 100 | 11.2 | 34.6 |  |  | > 100 | > 100 µM | 33 | > 100 µM | > 100 | > 100 µM |  | 
7 | O=[N+]([O-])c1ccc(O)c2ncccc12 | 19.1 µM and 4.22 µM | 82.6 µM and 21.3 µM |  | > 100 µM and 10.4 µM |  | > 100 µM and 26 µM |  |  |  |  |  | > 100 |  | > 100 µM and 15.5 µM |  | > 100 µM and 13.8 µM |  | > 100 µM and 10.7 µM | > 100 | 
8 | O=C(O/N=C1/CCCC/C1=C\c1ccccc1)c1ccc(Cl)cc1 |  | > 100 µM |  |  |  | > 100 µM |  | > 100 |  | > 100 |  | > 100 |  | > 100 µM |  | > 100 µM |  | > 100 µM | > 100 | 
9 | C=C1C(=O)O[C@H]2[C@H]1CC/C(COC(=O)C(=O)c1cn(C)c3ccc(OC)cc13)=C\CC[C@@]1(C)O[C@@H]21 | 1.27 µM | 3.17 µM | 3.65 | 16 µM | 6.69 | 11.8 µM | 5.2 | 25.5 | 4.03 | 7.56 | 2.34 | 19.5 | 5.97 | > 61.3 µM | 2.27 | 6.01 µM |  |  | 22.4 | 2.39
10 | COc1ccc(S(=O)(=O)N/N=C(\C)CN2C(=O)c3ccccc3C2=O)cc1 |  |  |  | > 100 µM |  | > 100 µM |  | > 100 |  | > 100 |  | > 100 |  | > 100 µM |  | > 100 µM |  | > 100 µM | > 100 | 
11 | CCCCC#Cc1cccc(=O)o1 | 15.3 µM | > 100 µM | 3.62 | > 100 µM |  |  | > 100 | > 100 | 3.71 | 26.6 | 2.03 | 49.9 |  |  | 79.5 | > 100 µM | 2.23 | 5.3 µM | > 100 | 20.3
12 | COC(=O)C(=O)C(C#N)c1ccc(Cl)c(Cl)c1 (configuration not stated) |  | > 100 µM |  | > 100 µM |  | > 100 µM |  |  |  | > 100 |  | > 100 |  | > 100 µM |  | > 100 µM |  |  | > 100 | 
13 | Cc1nn(C)c(=O)c2nn(-c3ccccc3)c(C)c12 |  |  |  | > 100 µM |  | > 100 µM |  | > 100 |  | > 100 |  | > 100 |  | > 100 µM |  | > 100 µM |  | > 100 µM | > 100 | 
14 | O=C1CCC(=O)C12CCc1cccc(O)c12 |  | > 100 µM |  |  |  | > 100 µM |  | > 100 |  |  |  | > 100 |  | > 100 µM |  | > 100 µM |  | > 100 µM |  | 
15 | O=C(Nc1ccccc1F)c1ccc(NC2=C(Cl)C(=O)N(Cc3ccccc3)C2=O)cc1 | 1.91 µM | 5.03 µM | 2.45 | 6.79 µM | 16.5 | 30 µM | 11.1 | 23.1 | 4.41 | 16.2 | 1.83 | 3.92 | 2.68 | 12.1 µM | 1.16 | 2.94 µM | 9.03 | 21 µM |  | 
